In brackets after ≈: the same amount, converted by molar mass. Where a SMILES comes first, the peptide text is derived from it. Bridges are numbered along the chain shown (N, C = ends). Roman numbers before positions name the chains, in order. [ ]: non-standard residue; d: D form. The star is where a group is joined. Leu(3R-OH) = CC(C)[C@@H](O)[C@H](N)C(=O)O; Thr(ol) = C[C@@H](O)[C@H](N)CO; Tle = CC(C)(C)[C@H](N)C(=O)O; Hiv = CC(C)[C@H](O)C(=O)O; dDab = NCC[C@@H](N)C(=O)O; hSer = N[C@@H](CCO)C(=O)O; NHCH(CH2OH)2 = OCC(CO)N*; Orn = NCCC[C@H](N)C(=O)O; Dab = NCC[C@H](N)C(=O)O; Dap = NC[C@H](N)C(=O)O
Columns and labels:
Assay type in all cases: cell-based
[1] = test system: Acinetobacter baumannii DSM 30008; details: DSM 30008
In short: (§1)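 Two-fold peptide dilutions in polysorbate 80-containing (0.002% final) cation-adjusted Mueller-Hinton II broth were inoculated with about 10^6 CFU/mL. The MIC was taken as the lowest concentration, in μg/mL, preventing visible growth at 18-20 hours and 35° C.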

[2] = test system: Klebsiella pneumoniae 968733; details: 968733
In short: as §1

[3] = test system: Klebsiella pneumoniae SSI #3010; details: SSI #3010
In short: as §1

Escherichia coli 926415 = details: 926415
In short: as §1

[4] = test system: Pseudomonas aeruginosa ATCC 27853; details: ATCC 27853
In short: as §1

[5] = test system: Enterobacter cloacae 848840; details: 848840
In short: as §1

[6] = test system: Acinetobacter baumannii 872842; details: 872842
In short: as §1

[7] = test system: Escherichia coli ATCC 25922; details: ATCC 25922
In short: as §1

[8] = test system: human red blood cells (hRBC); experiment: Hemolysis; details: red cells of human, 1 h, 200
In short: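 hRBC washed 4× in PBS; 200 μg/mL peptide + 20% (v/v) hRBC, 1 h, 37° C, 300 rpm. Spin, supernatant ~7.5-fold diluted, OD540 blank corrected. % hemolysis = OD540 peptide / OD540 Triton X-100 × 100.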

| Structure (SMILES) | MIC [1] [µg/mL] | MIC [2] [µg/mL] | MIC [3] [µg/mL] | MIC (Escherichia coli 926415) [µg/mL] | MIC [4] [µg/mL] | MIC [5] [µg/mL] | MIC [6] [µg/mL] | MIC [7] [µg/mL] | Hemolysis at 200 μg/mL [8] [%] | Acinetobacter baumannii DSM 30008 MIC [1] [µg/mL] | Klebsiella pneumoniae SSI #3010 MIC [3] [µg/mL] | Pseudomonas aeruginosa ATCC 27853 MIC [4] [µg/mL] | Escherichia coli ATCC 25922 MIC [7] [µg/mL] |
| --- | --- | --- | --- | --- | --- | --- | --- | --- | --- | --- | --- | --- | --- |
| CC(=O)N[C@H](C(=O)N[C@H]1CSSC[C@@H](C(N)=O)NC(=O)[C@H](C(C)(C)C)NC(=O)[C@H](CO)NC(=O)[C@H](Cc2c[nH]c3ccccc23)NC(=O)[C@H](CO)NC(=O)[C@@H](CCN)NC(=O)[C@H](CCC(=O)N[C@@H](CCN)C(=O)N[C@H](C(=O)N[C@@H](CN)C(=O)N[C@H]2CCNC(=O)[C@H]([C@@H](C)O)NC(=O)[C@H](CCN)NC(=O)[C@H](CCN)NC(=O)[C@H](CC(C)C)NC(=O)[C@@H](CC(C)C)NC(=O)[C@H](CCN)NC2=O)[C@@H](C)O)NC(=O)[C@H](CN)NC(=O)[C@H](Cc2ccc(O)cc2)NC1=O)C(C)C [Example 8] (I: Ac-VCY[Dap]E[dDab]SWS[Tle]C-NH2 / II: [Dab]T[Dap][Dab][Dab][dL]L[Dab][Dab]T; disulfide I:2-I:11; amide I:5-II:N; lactam II:4-II:C) | 0.125 (≈ 0.0541 µM) | 0.25 (≈ 0.108 µM) | 0.125 (≈ 0.0541 µM) | 0.5 (≈ 0.216 µM) | 0.125 (≈ 0.0541 µM) | 0.25 (≈ 0.108 µM) | 0.0625 (≈ 0.027 µM) | 0.0625 (≈ 0.027 µM) | <1 |  |  |  |  |
| CC(=O)N[C@H](C(=O)N[C@H]1CCCNC(=O)[C@@H](CCC(=O)O)NC(=O)[C@H](C(C)(C)C)NC(=O)[C@H](CO)NC(=O)[C@H](Cc2c[nH]c3ccccc23)NC(=O)[C@H](CCO)NC(=O)[C@@H](CCN)NC(=O)[C@H](CCC(=O)N[C@@H](CCN)C(=O)N[C@H](C(=O)N[C@@H](CN)C(=O)N[C@H]2CCNC(=O)[C@H]([C@@H](C)O)NC(=O)[C@H](CCN)NC(=O)[C@H](CCN)NC(=O)[C@H](CC(C)C)NC(=O)[C@@H](CC(C)C)NC(=O)[C@H](CCN)NC2=O)[C@@H](C)O)NC(=O)[C@H](CO)NC(=O)[C@H](Cc2ccc(O)cc2)NC1=O)C(C)C [Ex. 21] (I: Ac-V[Orn]YSE[dDab][hSer]WS[Tle][dE] / II: [Dab]T[Dap][Dab][Dab][dL]L[Dab][Dab]T; lactam I:2-I:C, II:4-II:C; amide I:5-II:N) | 0.5 (≈ 0.213 µM) | 8 (≈ 3.41 µM) | 0.5 (≈ 0.213 µM) | 8 (≈ 3.41 µM) | 0.5 (≈ 0.213 µM) | 0.5 (≈ 0.213 µM) | 2 (≈ 0.852 µM) | 0.25 (≈ 0.106 µM) | <1 |  |  |  |  |
| CC(C)C[C@@H]1NC(=O)[C@@H](CC(C)C)NC(=O)[C@H](CCN)NC(=O)[C@@H](NC(=O)[C@H](CN)NC(=O)[C@@H](NC(=O)[C@H](CCN)NC(=O)CC[C@@H]2NC(=O)[C@@H](CCN)NC(=O)[C@H](CCCN)NC(=O)[C@H](CCN)NC(=O)[C@H](Cc3ccc(O)cc3)NC(=O)[C@@H](NC(=O)[C@@H](O)C(C)C)CSSC[C@@H](C(=O)NC(CO)CO)NC(=O)[C@H](C(C)(C)C)NC(=O)[C@H](CO)NC(=O)[C@H](Cc3c[nH]c4ccccc34)NC2=O)[C@@H](C)O)CCNC(=O)[C@H]([C@@H](C)O)NC(=O)[C@H](CCN)NC(=O)[C@H](CCN)NC1=O [Ex. 172] (I: H-[Hiv]CY[Dab][Orn][dDab]EWS[Tle]C-{NHCH(CH2OH)2} / II: [Dab]T[Dap][Dab][Dab][dL]L[Dab][Dab]T; disulfide I:2-I:11; amide I:7-II:N; lactam II:4-II:C) | 0.125 (≈ 0.0524 µM) | 0.5 (≈ 0.21 µM) | 0.125 (≈ 0.0524 µM) | 0.25 (≈ 0.105 µM) | 0.25 (≈ 0.105 µM) | 0.25 (≈ 0.105 µM) | 0.125 (≈ 0.0524 µM) | 0.125 (≈ 0.0524 µM) | <1 |  |  |  |  |
| CC(=O)N[C@@H](CCN)C(=O)N[C@H](C(=O)N[C@H](C(=O)N[C@@H](Cc1ccc(O)cc1)C(=O)N[C@H]1CSSC[C@@H](C(=O)N[C@H](C(=O)N[C@@H](C)C(=O)N[C@H](C(N)=O)C(C)C)C(C)(C)C)NC(=O)[C@H](Cc2c[nH]c3ccccc23)NC(=O)[C@H](CCN)NC(=O)[C@@H](CCN)NC(=O)[C@H](CCC(=O)N[C@@H](CCN)C(=O)N[C@H](C(=O)N[C@@H](CN)C(=O)N[C@H]2CCNC(=O)[C@H]([C@@H](C)O)NC(=O)[C@H](CCN)NC(=O)[C@H](CCN)NC(=O)[C@H](CC(C)C)NC(=O)[C@@H](CC(C)C)NC(=O)[C@H](CCN)NC2=O)[C@@H](C)O)NC1=O)[C@@H](C)O)[C@H](O)C(C)C [Ex. 240] (I: Ac-[Dab][Leu(3R-OH)]TYCE[dDab][Dab]WC[Tle]AV-NH2 / II: [Dab]T[Dap][Dab][Dab][dL]L[Dab][Dab]T; disulfide I:5-I:10; amide I:6-II:N; lactam II:4-II:C) | 0.03125 (≈ 0.0122 µM) | 0.5 (≈ 0.196 µM) | 0.125 (≈ 0.049 µM) | 0.0625 (≈ 0.0245 µM) | 0.25 (≈ 0.0979 µM) | 0.125 (≈ 0.049 µM) | 0.0625 (≈ 0.0245 µM) | 0.0625 (≈ 0.0245 µM) | 1 |  |  |  |  |
| CC[C@H](C)[C@@H]1NC(=O)[C@H](CO)NC(=O)[C@H](Cc2c[nH]c3ccccc23)NC(=O)[C@H](CO)NC(=O)[C@@H](CCN)NC(=O)[C@H](CCC(=O)N[C@@H](CCN)C(=O)N[C@H](C(=O)N[C@@H](CN)C(=O)N[C@H]2CCNC(=O)[C@H]([C@@H](C)O)NC(=O)[C@H](CCN)NC(=O)[C@H](CCN)NC(=O)[C@H](CC(C)C)NC(=O)[C@@H](CC(C)C)NC(=O)[C@H](CCN)NC2=O)[C@@H](C)O)NC(=O)[C@H](CCN)NC(=O)[C@H](Cc2ccc(O)cc2)NC(=O)[C@@H](NC(=O)[C@@H](NC(C)=O)C(C)C)CCNC(=O)CC[C@@H](C(=O)N[C@@H](CO)C(N)=O)NC1=O [Ex. 324] (I: Ac-V[Dab]Y[Dab]E[dDab]SWSIES-NH2 / II: [Dab]T[Dap][Dab][Dab][dL]L[Dab][Dab]T; lactam I:2-I:11, II:4-II:C; amide I:5-II:N) |  | 0.5 (≈ 0.207 µM) |  | 0.125 (≈ 0.0517 µM) |  | 0.125 (≈ 0.0517 µM) | 0.125 (≈ 0.0517 µM) |  | <1 | 0.0625 | 0.0625 | 0.0625 | 0.0625 |
| CC(C)C[C@@H]1NC(=O)[C@@H](CC(C)C)NC(=O)[C@H](CCN)NC(=O)[C@@H](NC(=O)[C@H](CCN)NC(=O)[C@@H](NC(=O)[C@H](CCN)NC(=O)CC[C@@H]2NC(=O)[C@@H](NC(=O)[C@H](Cc3ccc(O)cc3)NC(=O)[C@@H](NC(=O)[C@@H](N)C(C)C)[C@@H](C)O)CSSC[C@@H](C(=O)N[C@H](C(=O)N[C@@H](C)C(=O)N[C@@H](CO)C(N)=O)C(C)(C)C)NC(=O)[C@H](Cc3c[nH]c4ccccc34)NC(=O)[C@H]([C@@H](C)O)NC(=O)[C@@H](CCN)NC2=O)[C@@H](C)O)CCNC(=O)[C@H]([C@@H](C)O)NC(=O)[C@H](CCN)NC(=O)[C@H](CCN)NC1=O [Ex. 182] (I: H-VTYCE[dDab]TWC[Tle]AS-NH2 / II: [Dab]T[Dab][Dab][Dab][dL]L[Dab][Dab]T; disulfide I:4-I:9; amide I:5-II:N; lactam II:4-II:C) | 0.0625 (≈ 0.0262 µM) | 1 (≈ 0.419 µM) | 0.125 (≈ 0.0524 µM) | 0.5 (≈ 0.21 µM) | 0.125 (≈ 0.0524 µM) | 0.125 (≈ 0.0524 µM) | 0.125 (≈ 0.0524 µM) | 0.03125 (≈ 0.0131 µM) | <1 |  |  |  |  |
| CC(C)C[C@@H]1NC(=O)[C@@H](CC(C)C)NC(=O)[C@H](CCN)NC(=O)[C@@H](NC(=O)[C@H](CCN)NC(=O)[C@@H](NC(=O)[C@H](CCN)NC(=O)CC[C@@H]2NC(=O)[C@H](CCN)NC(=O)[C@H](Cc3ccc(O)cc3)NC(=O)[C@@H](NC(=O)[C@@H](O)C(C)C)CSSC[C@@H](C(=O)N[C@H](CO)[C@@H](C)O)NC(=O)[C@H](C(C)C)NC(=O)[C@H](CO)NC(=O)[C@H](Cc3c[nH]c4ccccc34)NC(=O)[C@H](CCO)NC(=O)[C@@H](CCN)NC2=O)[C@@H](C)O)CCNC(=O)[C@H]([C@@H](C)O)NC(=O)[C@H](CCN)NC(=O)[C@H](CCN)NC1=O [Ex. 78] (I: H-[Hiv]CY[Dab]E[dDab][hSer]WSVC[Thr(ol)] / II: [Dab]T[Dab][Dab][Dab][dL]L[Dab][Dab]T; disulfide I:2-I:11; amide I:5-II:N; lactam II:4-II:C) | 0.0625 (≈ 0.0262 µM) | 0.0625 (≈ 0.0262 µM) | 0.25 (≈ 0.105 µM) | 0.125 (≈ 0.0524 µM) | 0.125 (≈ 0.0524 µM) | 2 (≈ 0.838 µM) | 0.125 (≈ 0.0524 µM) | 0.03125 (≈ 0.0131 µM) | <1 |  |  |  |  |
